“And” between values parts separate entries of the source, which are not always exact repeats. Identical values can stand only once. Toxic doses and inconclusive results are not listed. Cut-off read from the data, not from the text of the source: active = T/C of 150% or more; inactive = T/C below 125%.
System: L1210 leukemia ip in BDF1 mice, survival T/C
Assay: NCI In Vivo Anticancer Drug Screen. Data for tumor model L1210 Leukemia (intraperitoneal) in B6D2F1 (BDF1) mice
Conditions: endpoint: mean survival time, higher = longer survival
Summary of the method: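 Tumor cells were implanted, animals were treated, and survival was followed. The result divides the treated measurement by the vehicle-control measurement.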

[1] = dose: 100.0 mg/kg/injection, schedule: Q01DX009 (ip), vehicle: Klucel (hydroxypropylcellulose) (HPC)
[2] = dose: 200.0 mg/kg/injection, schedule: Q01DX009 (ip), vehicle: Klucel (hydroxypropylcellulose) (HPC)
[3] = dose: 12.5 mg/kg/injection, schedule: Q01DX009 (ip), vehicle: Klucel (hydroxypropylcellulose) (HPC)
[4] = dose: 25.0 mg/kg/injection, schedule: Q01DX009 (ip), vehicle: Klucel (hydroxypropylcellulose) (HPC)
[5] = dose: 50.0 mg/kg/injection, schedule: Q01DX009 (ip), vehicle: Klucel (hydroxypropylcellulose) (HPC)
[6] = dose: 25.0 mg/kg/injection, schedule: Q01DX009 (ip), vehicle: saline
[7] = dose: 25.0 mg/kg/injection, schedule: Q04DX003 (ip), vehicle: saline
[8] = dose: 50.0 mg/kg/injection, schedule: Q04DX003 (ip), vehicle: saline
[9] = dose: 100.0 mg/kg/injection, schedule: Q04DX003 (ip), vehicle: Klucel (hydroxypropylcellulose) (HPC)
[10] = dose: 200.0 mg/kg/injection, schedule: Q04DX003 (ip), vehicle: Klucel (hydroxypropylcellulose) (HPC)
[11] = dose: 400.0 mg/kg/injection, schedule: Q04DX003 (ip), vehicle: Klucel (hydroxypropylcellulose) (HPC)
[12] = dose: 100.0 mg/kg/injection, schedule: Q04DX003 (ip), vehicle: saline with Tween-80
[13] = dose: 200.0 mg/kg/injection, schedule: Q04DX003 (ip), vehicle: saline with Tween-80
[14] = dose: 400.0 mg/kg/injection, schedule: Q04DX003 (ip), vehicle: saline with Tween-80
[15] = dose: 50.0 mg/kg/injection, schedule: Q01DX001 (ip), vehicle: saline
[16] = dose: 100.0 mg/kg/injection, schedule: Q01DX001 (ip), vehicle: saline

Measured: T/C

CC(C)(C)c1cc(/C=N/n2c(-c3ccccc3)nc3ccccc3c2=O)cc(C(C)(C)C)c1O
inactive: dose: 100.0 mg/kg/injection, schedule: Q01DX001 (ip), vehicle: Klucel (hydroxypropylcellulose) (HPC) 89 % of control | [1] 89 % of control and 91 % of control | dose: 100.0 mg/kg/injection, schedule: Q04DX002 (ip), vehicle: Klucel (hydroxypropylcellulose) (HPC) 95 % of control | dose: 200.0 mg/kg/injection, schedule: Q01DX001 (ip), vehicle: Klucel (hydroxypropylcellulose) (HPC) 89 % of control | [2] 95 % of control and 91 % of control | dose: 200.0 mg/kg/injection, schedule: Q04DX002 (ip), vehicle: Klucel (hydroxypropylcellulose) (HPC) 98 % of control | dose: 400.0 mg/kg/injection, schedule: Q01DX001 (ip), vehicle: Klucel (hydroxypropylcellulose) (HPC) 93 % of control | dose: 400.0 mg/kg/injection, schedule: Q04DX002 (ip), vehicle: Klucel (hydroxypropylcellulose) (HPC) 97 % of control and 100 % of control

Cc1ccc(NC(=O)c2ccccc2Cl)cc1C
inactive: dose: 100.0 mg/kg/injection, schedule: Q01DX009 (ip), vehicle: saline with Tween-80 90 % of control | dose: 200.0 mg/kg/injection, schedule: Q01DX009 (ip), vehicle: saline with Tween-80 97 % of control | dose: 400.0 mg/kg/injection, schedule: Q01DX009 (ip), vehicle: saline with Tween-80 104 % of control

O=C1C2C(C(=O)N1c1cccc3ccccc13)C1(Cl)C(Cl)=C(Cl)C2(Cl)C1(Cl)Cl (stereo not drawn)
inactive: [3] 103 % of control | [4] 104 % of control | [5] 96 % of control

Cc1cn(CC(=O)c2c[nH]c3ccccc23)c(=O)[nH]c1=O
inactive: dose: 100.0 mg/kg/injection, schedule: Q04DX002 (ip), vehicle: saline with Tween-80 101 % of control | dose: 200.0 mg/kg/injection, schedule: Q04DX002 (ip), vehicle: saline with Tween-80 101 % of control | dose: 400.0 mg/kg/injection, schedule: Q04DX002 (ip), vehicle: saline with Tween-80 93 % of control

CN1CCNC(=O)CC1
inactive: dose: 25.0 mg/kg/injection, schedule: Q01DX009 (ip), vehicle: water 106 % of control | dose: 50.0 mg/kg/injection, schedule: Q01DX009 (ip), vehicle: water 102 % of control | dose: 100.0 mg/kg/injection, schedule: Q01DX009 (ip), vehicle: water 98 % of control | dose: 200.0 mg/kg/injection, schedule: Q01DX009 (ip), vehicle: water 114 % of control

C=C1CC(CCCCC2CC(=C)C(=O)O2)OC1=O (stereo not drawn)
inactive: dose: 100.0 mg/kg/injection, schedule: Q04DX002 (ip), vehicle: saline 108 % of control | dose: 200.0 mg/kg/injection, schedule: Q04DX002 (ip), vehicle: saline 101 % of control | dose: 400.0 mg/kg/injection, schedule: Q04DX002 (ip), vehicle: saline 108 % of control

CN(C)CCOC(=O)N1c2ccccc2C(C)(C)c2ccccc21
inactive: dose: 5.8 mg/kg/injection, schedule: Q01DX001 (ip), vehicle: water 93 % of control | dose: 11.5 mg/kg/injection, schedule: Q01DX001 (ip), vehicle: water 98 % of control | dose: 23.0 mg/kg/injection, schedule: Q01DX001 (ip), vehicle: water 91 % of control | dose: 44.4 mg/kg/injection, schedule: Q01DX001 (ip), vehicle: water 95 % of control | dose: 50.0 mg/kg/injection, schedule: Q01DX001 (ip), vehicle: water 100 % of control | dose: 66.7 mg/kg/injection, schedule: Q01DX001 (ip), vehicle: water 97 % of control | dose: 150.0 mg/kg/injection, schedule: Q01DX001 (ip), vehicle: water 95 % of control

CCCCCCCCCCCCCCCCCC1=NCCN1CCN
inactive: [6] 111 % of control | [7] 97 % of control | dose: 50.0 mg/kg/injection, schedule: Q01DX009 (ip), vehicle: saline 97 % of control | [8] 92 % of control | dose: 100.0 mg/kg/injection, schedule: Q01DX001 (ip), vehicle: acetone 100 % of control | dose: 100.0 mg/kg/injection, schedule: Q04DX003 (ip), vehicle: saline 101 % of control

CCCCCCCCC(C)c1ccccc1O (stereo not drawn)
inactive: [1] 104 % of control | [2] 101 % of control | dose: 400.0 mg/kg/injection, schedule: Q01DX009 (ip), vehicle: Klucel (hydroxypropylcellulose) (HPC) 112 % of control

O=NN(CCCl)C(=O)NC(=O)NCCCl
inactive: dose: 1.0 mg/kg/injection, schedule: Q01DX001 (ip), vehicle: carboxymethylcellulose (CMC) 112 % of control | dose: 2.0 mg/kg/injection, schedule: Q01DX001 (ip), vehicle: carboxymethylcellulose (CMC) 118 % of control | dose: 4.0 mg/kg/injection, schedule: Q01DX001 (ip), vehicle: carboxymethylcellulose (CMC) 122 % of control | dose: 18.0 mg/kg/injection, schedule: Q01DX001 (ip), vehicle: carboxymethylcellulose (CMC) 119 % of control

[CH3][Pb]([CH3])([CH3])[I]
inactive: [9] 103 % of control | [10] 98 % of control | [11] 94 % of control

CN(C)CC/C(=N\Nc1ccc([N+](=O)[O-])cc1[N+](=O)[O-])c1ccccc1
inactive: dose: 100.0 mg/kg/injection, schedule: Q01DX001 (ip), vehicle: saline with Tween-80 94 % of control | dose: 200.0 mg/kg/injection, schedule: Q01DX001 (ip), vehicle: saline with Tween-80 92 % of control | dose: 400.0 mg/kg/injection, schedule: Q01DX001 (ip), vehicle: saline with Tween-80 92 % of control

S=C1NCCCS1
inactive: [3] 93 % of control | [4] 104 % of control | [5] 98 % of control | [1] 101 % of control | [9] 98 % of control | [10] 95 % of control | [11] 104 % of control

CCCCN(CCCC)C(=O)NS(=O)(=O)c1ccc(N)cc1
inactive: [12] 95 % of control | [13] 104 % of control | [14] 101 % of control

Oc1ccc(Br)c2cccnc12
inactive: [15] 100 % of control | [16] 103 % of control | dose: 200.0 mg/kg/injection, schedule: Q01DX001 (ip), vehicle: saline 103 % of control | dose: 400.0 mg/kg/injection, schedule: Q01DX001 (ip), vehicle: saline 100 % of control

CC(C)CCNC(=O)CS(=O)(=O)c1ccc(N)cc1
inactive: [12] 98 % of control | [13] 98 % of control | [14] 96 % of control

CC(=O)N(N=O)c1c(C)cccc1C
inactive: [15] 102 % of control | [16] 105 % of control

C[N+](C)(C)N=C1CCC2(CC1)c1ccccc1-c1ccccc12
inactive: dose: 12.5 mg/kg/injection, schedule: Q01DX009 (ip), vehicle: saline 95 % of control | dose: 12.5 mg/kg/injection, schedule: Q04DX003 (ip), vehicle: saline 103 % of control | [6] 93 % of control | [7] 100 % of control | [8] 95 % of control

CCCCOC(=O)/C(=C\c1cccc(OC)c1)NC(=O)c1ccccc1
inactive: dose: 50.0 mg/kg/injection, schedule: Q01DX009 (ip), vehicle: other 92 % of control | dose: 100.0 mg/kg/injection, schedule: Q01DX009 (ip), vehicle: other 89 % of control | dose: 200.0 mg/kg/injection, schedule: Q01DX009 (ip), vehicle: other 100 % of control and 91 % of control | dose: 400.0 mg/kg/injection, schedule: Q01DX009 (ip), vehicle: other 88 % of control
